Source: patent US7560470B2, “Heterocyclyl-3-sulfonylindazoles as 5-hydroxytryptamine-6 ligands” (Wyeth, priority 2003, dated 2009)

Columns and labels:
[1] = biological target: T1, human cloned 5-HT6 receptors (Homo sapiens, UniProt P50406); experiment: 5-HT6 binding affinity, [3H]-LSD displacement on membranes of Hela cells expressing human cloned 5-HT6 receptors; conditions: [3H]-LSD 3.0 nM, Hela cell membranes, 120 min at room temperature; read-out: 5-HT6 Binding Ki
T1 construct: expressed in transfected cells; host or cells: HeLa cells (membrane preparation)
T1 sequence (P50406 whole entry): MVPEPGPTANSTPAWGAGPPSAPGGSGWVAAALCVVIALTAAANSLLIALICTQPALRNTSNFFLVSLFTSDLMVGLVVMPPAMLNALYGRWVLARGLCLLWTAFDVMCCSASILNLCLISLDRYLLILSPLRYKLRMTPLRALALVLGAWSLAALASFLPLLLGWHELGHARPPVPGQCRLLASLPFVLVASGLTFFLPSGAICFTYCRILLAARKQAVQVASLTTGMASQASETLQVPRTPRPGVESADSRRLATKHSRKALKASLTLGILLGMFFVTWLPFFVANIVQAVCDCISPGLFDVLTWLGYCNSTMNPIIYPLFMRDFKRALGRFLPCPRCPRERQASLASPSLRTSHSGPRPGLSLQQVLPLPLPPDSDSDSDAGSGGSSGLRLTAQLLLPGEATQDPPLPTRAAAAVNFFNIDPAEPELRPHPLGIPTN
Procedure: The affinity of test compounds for the serotonin 5-HT6 receptor is evaluated in the following manner. Cultured Hela cells expressing human cloned 5-HT6 receptors are harvested and centrifuged at low speed (1,000×g) for 10.0 min to remove the culture media. The harvested cells are suspended in half volume of fresh physiological phosphate buffered saline solution and recentrifuged at the same speed. This operation is repeated. The collected cells are then homogenized in ten volumes of 50 mM Tris.HCl (pH 7.4) and 0.5 mM EDTA. The homogenate is centrifuged at 40,000×g for 30.0 min and the precipitate is collected. The obtained pellet is resuspended in 10 volumes of Tris.HCl buffer and recentrifuged at the same speed. The final pellet is suspended in a small volume of Tris.HCl buffer and the tissue protein content is determined in aliquots of 10-25 μl volumes. Bovine Serum Albumin is used as the standard in the protein determination according to the method described in Lowry et al., J. Biol. Chem., 193:265 (1951). The volume of the suspended cell membranes is adjusted to give a tissue protein concentration of 1.0 mg/ml of suspension. The prepared membrane suspension (10 times concentrated) is aliquoted in 1.0 ml volumes and stored at −70° C. until used in subsequent binding experiments.
Binding experiments are performed in a 96 well microtiter plate format, in a total volume of 200 μl. […] The test compounds are added in 20.0 μl volume.
The reaction is allowed to proceed in the dark for 120 min at room temperature, at which time, the bound ligand-receptor complex is filtered off on a 96 well unifilter with a Packard Filtermate® 196 Harvester. The bound complex caught on the filter disk is allowed to air dry and the radioactivity is measured in a Packard TopCount® equipped with six photomultiplier detectors, after the addition of 40.0 μl Microscint®−20 scintillant to each shallow well. The unifilter plate is heat-sealed and counted in a PackardTopCount® with a tritium efficiency of 31.0%.
Binding in the presence of varying concentrations of test compound is expressed as a percentage of specific binding in the absence of test compound. The results are plotted as log % bound versus log concentration of test compound. Nonlinear regression analysis of data points with a computer assisted program Prisms® yields both the IC50 and the Ki values of test compounds with 95% confidence limits.
The amount of displacement by the test compound is given in percent (%) inhibition and is derived from the following equation:
[formula] where B0 is the amount of CPM bound in the presence of the testing agent. NSB represents the CPM bound in the presence of a saturating concentration of a displacer and TB represents the total amount of CPM bound at zero (0) concentration of test compound.
Alternatively, a linear regression line of data points is plotted, from which the IC50 value is determined and the Ki value is determined based upon the following equation: Ki=IC50/(1+L/KD) where L is the concentration of the radioactive ligand used and KD is the dissociation constant of the ligand for the receptor, both expressed in nM.

| Compound | Ki [1] | melting point |
| --- | --- | --- |
| O=S(=O)(c1ccccc1)c1nn(-c2ccc(F)c(Cl)c2)c2ccc(N3CCNCC3)cc12 [Example 38] | 73 nM | > 200 °C |
| O=S(=O)(c1ccccc1)c1nn(-c2cccc(C(F)(F)F)c2)c2ccc(N3CCNCC3)cc12 [Example 40] | 62 nM | 139 to 142 °C |
| O=S(=O)(c1ccccc1)c1nn(-c2ccc(I)cc2)c2ccc(N3CCNCC3)cc12 [Example 42] | 117 nM | > 200 °C |
| CCn1nc(S(=O)(=O)c2ccccc2)c2cc(N3CCNCC3)ccc21 [Example 43] | 3 nM | > 200 °C |
